Experimental findings from patent publication US12534729B2, “Uses of synthetic lethal partners for treatment of cancer” (Sanford Burnham Prebys Medical Discovery Institute, priority 2019, dated 2026) are described below.

One assay deals with ATF4. The experiment in a line: Immunoblotting/qRT-PCR of ATF4 induction (GCN2-ATF4 axis) after ASNS knockdown. Format: cell-based, human. The note with it: for ATF4 induction following ASNS knockdown (immunoblot): melanoma cells, 72 hr, ISRIB 200 nM, eFT508 100 nM, sunitinib 500 nM. The method, then:
(§1) Immunoblotting: Total protein was extracted in Laemmli buffer, fractionated by SDS polyacrylamide gels and transferred to PVDF membranes (Millipore Sigma, MA, USA). After blocking with 5% non-fat dry milk (BD Biosciences, CA, USA), the membranes were incubated with primary antibodies overnight at 4° C. Afterwards, 2 hr incubation with HRP-conjugated secondary antibodies was performed. Following chemiluminescence reaction, the protein signal was visualized using the ChemiDoc imaging system (Bio-Rad, Hercules, CA) according to the manufacturer's instructions.
qPCR Analysis: 1×10^5 cells were seeded O/N per well in 6-well plates. Following treatment for 48 hr, total RNA was extracted using RNeasy Mini Kit (Qiagen, Hilden, Germany). cDNA was synthesized using oligo(dT) and random primers (AB Bioscience, MA, USA), and qPCR analysis was performed with SYBR Green (Roche, NJ, USA). Primers were designed using the PrimerQuest tool (Integrated DNA Technologies, CA, USA) and Primer Bank Actin was used as an internal control.
For orientation: A western blot detects proteins with antibodies after separation by electrophoresis.

Assay [1] has as its system A375 and UACC-903 melanoma cells. Kind of assay: Cell proliferation (cell count) of melanoma lines. Format: cell-based, human. Conditions: PLX-4032 250 nM; for cell proliferation in combination with ASNS knockdown (si-ASNS): melanoma cells, ISRIB 200 nM. The protocol: siRNA Transfection: 1×10^5 cells were seeded overnight (O/N) per well in 6-well plates. Negative control (NT-siRNA) or si-RNA targeting the transcript of interest was transfected utilizing jetPRIME® transfection reagent, as per manufacturer's instructions (Polyplus, NY, USA). Following siRNAs were used: si-ASNS #1 (SASI_Hs02_00332309), si-ASNS #2 (SASI_Hs01_00116721), si-ASNS #3 (SASI_Hs01_00116722), si-ATF4 (SASI_Hs02_00332313), si-eIF4E (SASI_Hs01_00216117), si-BRAF (SASI_Hs01_00107705), si-GCN2 (SASI_Hs01_00097888), si-MNK #1 (SASI_Hs01_00228422), si-MNK1 #2 (SASI_Hs01_00228423), si-MNK1 #3 (SASI_Hs01_00228424), and the negative control si-RNA (NT-siRNA; SIC001) were purchased from Sigma-Aldrich.
Cell Proliferation: For cell proliferation, 0.3-0.5×10^5 cells were seeded O/N in triplicate in 6-well plate. Following treatment for the specified duration, cells were trypsinized and the cell count was determined with Neubauer hemocytometer (Celeromics, Cambridge, UK).

The test system of assay [2] is KRASLSLG12D/+; p53R172H/+; PDXCretg/+ (KPC/B6) pancreatic tumors. The format is in vivo. The note with it: same regimen. The protocol:
(§2) In Vivo Studies: All animal studies were conducted in the SBP Medical Discovery Institute Animal Facility in accordance with the Institutional Animal Care and Use Committee guidelines. 8-week-old males C57BL/6 mice were purchased from Jackson laboratories (Bar Harbor, ME) and allowed to acclimatize for 1 week. KRAS^LSLG12D/+. p53^R172H/+; PDX^Cretg/+ (KPC/B6) pancreatic cancer cells (1×10^6, suspended in 30 μl sterile PBS) were orthotopically injected into head of the pancreas. After one week, mice were randomized and sorted into treatment groups (n=8 animal/group). L-A′ase (60 IU/animal) was administered daily for five times a week for 3 weeks intraperitoneally. MEK inhibitor PD-325901 (4 mg/kg) in 0.5% (w/v) hydroxy-propyl-methylcellulose, 0.2% (v/v) Tween 80 (Sigma) was administered by oral gavage twice a week for 3 weeks. For in vivo melanoma study, 8-week-old male C57BL/6 mice were injected subcutaneously in the flank with 2×10^5 MaNRAS1 (1007) cells. When tumors reached ˜250 mm^3, mice were randomized and sorted into treatment groups (n=8 animal/group).
(§3) Mice were maintained in a pathogen-free environment with free access to food. Tumor volume was measured blinded twice a week. Tumor volume was measured with linear calipers and calculated using the formula: ([length in millimeters x (width in millimeters)2]/2). […]

In assay [3] the test system is MaNRAS1 (1007) mouse melanoma cells. The experiment in a line: Subcutaneous MaNRAS1 (1007) NRAS mutant melanoma model. The note with it: L-A′ase and PD-325901 dosed as in pancreatic study. Format: in vivo, C57BL/6 mice. The protocol:
as §2, §3

The test system of another assay is ATF4 mRNA in A375 cells. Kind of assay: Polysome profiling of ATF4 mRNA translation. The note with it: si-ASNS plus PLX-4032 500 nM, 48 hr. The format is cell-based, human. The protocol:
Polysome Profiling: Polysome profiling was performed as described previously (Gandin et al., 2014). A375 cells were seeded at 30% confluency in a 15-cm Petri dish and transfected with NT-siRNA, si-ASNS, si-MNK1 (#1), or si-ASNS+si-MNK1 for 16 hr, using JetPrime transfection reagent (Polyplus) as per manufacturer's instruction. Post-transfection, cells were replenished with fresh media containing vehicle (DMSO) or 500 nM PLX-4032 (Selleckchem) for 48 hr treatment. […] Optical density values at 260 nm (OD260) were measured in each lysate and OD260 of ˜5 were then loaded in 5-50% sucrose gradients generated using Gradient Master (Biocomp, Fredericton, NB). […] Sucrose gradients were subjected to ultracentrifugation (SW41 Ti 11E1698 rotor; Beckman 39,000 RPM for 2 hr at 4° C.) and fractionated by displacement using 60% sucrose/0.01% bromophenol blue, on ISCO Foxy fraction collector (35 sec for each fraction ˜750 μL per fraction) equipped with an ultraviolet lamp for continuous absorbance monitoring at 254 nm. […] Relative change in the transcript levels in different pools was determined by the 2-ΔΔCT method, and shown as fold-change relative to mock-treated cells. β-Actin was used as an internal control.

In the next assay the test system is ERK1/2. The experiment in a line: Immunoblotting of phosphorylated MEK1/2 and ERK1/2 (MAPK signaling). The note with it: melanoma cells, 72 hr; gefitinib 1 μM, sunitinib 500 nM. Format: cell-based, human. The protocol: as §1

As for `O=C(COc1ccc(Cl)cc1)NC1CCC(NC(=O)COc2ccc(Cl)cc2)CC1` (stereo not shown) [ISRIB], the “ATF4 induction following ASNS knockdown (immunoblot)” value in the assay on ATF4 is on record as “suppression of ATF4 induction”. In addition, in assay [1], the “cell proliferation in combination with ASNS knockdown (si-ASNS)” value is “potentiated anti-proliferative effects of ASNS depletion in melanoma cells”.
As for `O=C(NOC[C@H](O)CO)c1ccc(F)c(F)c1Nc1ccc(I)cc1F` [PD-325901], the “apoptosis (cleaved caspase-3)” value in assay [2] was “did not result in a significant increase in apoptosis”. Besides, the “tumor growth (volume)” value in assay [3] is “only modest anti-tumor activity”.
With `CCCS(=O)(=O)Nc1ccc(F)c(C(=O)c2c[nH]c3ncc(-c4ccc(Cl)cc4)cc23)c1F` [PLX-4032], the “translational efficiency of ATF4 mRNA (polysome distribution)” value in the assay with ATF4 mRNA in A375 cells is reported as “attenuated increase in translational efficiency of ATF4 mRNA caused by ASNS depletion”. For the same compound, the “melanoma cell proliferation, drug alone” value in assay [1] (BRAF mutant melanoma lines) is “attenuated melanoma cell proliferation”. In assay [1], the “cell proliferation in combination with ASNS knockdown (si-ASNS)” value is on record as “a more effective inhibition was seen upon its combination with ASNS knockdown”.
Turning to `Cc1cc(Nc2cc(N)ncn2)c(=O)n2c1C(=O)NC21CCCCC1` [eFT508], in the assay on ATF4, the “ATF4 induction following ASNS knockdown (immunoblot)” value is given as “did not antagonize ATF4 induction in response to ASNS suppression”.
As to `COc1cc2ncnc(Nc3ccc(F)c(Cl)c3)c2cc1OCCCN1CCOCC1` [gefitinib], in the assay with ERK1/2, the “MEK1/2 and ERK1/2 phosphorylation under ASNS knockdown” value is “did not alter ERK1/2 activation under ASNS knockdown conditions”.
For the compound `CCC(=O)N1CCN(c2ccc(-n3c(=O)ccc4cnc5ccc(-c6cnc7ccccc7c6)cc5c43)cc2C(F)(F)F)CC1` [torin 1], the “ATF4 induction and upregulation of ATF4 targets following ASNS knockdown” value with ATF4 (melanoma and pancreatic cancer cell lines, rapamycin 100 nM, Torin 1 100 nM) was “blocked both ATF4 induction and upregulation of ATF4 targets seen following ASNS knockdown”.
